Values quoted from earlier work as cited in patent US20040121025A1, “Oral composition for the treatment and prevention of bone loss” (priority 2002, published 2004).

What was measured:
estrogen like effects = conditions: unlike many of the other isoflavones
bone loss [1] = conditions: animal studies
bone loss [2] = conditions: animal studies; remark: listed apart in the source
[3] = system: bone demineralization / bone loss; conditions: with supplemental calcium
osteoporosis [4] = conditions: elderly women over the age of 65
[5] = system: parathyroid-stimulated osteoclastic activity; conditions: ipriflavone supplementation in rats
bone mass [6] = conditions: 200 mg three times daily; two years; women age 50-65; placebo groups had significant bone loss
bone mass [7] = system: bone mass
bone loss [8] = conditions: men
bone loss [9] = conditions: premenopausal women
[10] = system: parathyroid hormone, vitamin D, prostaglandin E2, and interleukin 1-beta; conditions: animal study, prostaglandin E2, interleukin 1-beta
osteoporosis [11] = conditions: including a form of vitamin D commonly used for osteoporosis
bone mineral density = conditions: women treated with Lupron for six months; supplemental calcium; placebo decreased significantly

## CC(C)Oc1ccc2c(=O)c(-c3ccccc3)coc2c1 [ipriflavone, 7-isopropoxysioflavone]
Estrogen like effects
  estrogen like effects: does not exhibit estrogen like effects
Bone loss [1]
  bone loss associated with immobilization: inhibited bone loss
Bone loss [2]
  bone loss associated with long term steroid use: inhibited bone loss
[3]; post-menopausal women or women who have had their ovaries removed
  safety and efficacy in halting bone loss: safe and effective in halting bone loss
[3]; postmenopausal women
  halting bone demineralization: effective in halting bone demineralization
Osteoporosis [4]
  treatment of osteoporosis: particularly effective
[5]
  parathyroid-stimulated osteoclastic activity and resulting hypercalcemia: inhibited in a dosedependent manner
Bone mass [6]
  bone mass: maintained or improved slightly
Bone mass [7]; 0.15-0.30 mg/day estrogen with ipriflavone versus 0.625 mg/day or higher
  maintaining bone mass with lower doses of estrogen: equally effective in maintaining bone mass
Bone mass [7]; in vivo
  effect on the effects of estrogen on bone: enhance the effects of estrogen on bone
Bone loss [8]
  preventing bone loss: effective in preventing bone loss in men
Bone loss [9]
  rapid bone loss that follows ovariectomy: prevents the rapid bone loss that follows ovariectomy
[10]
  inhibition of compounds involved in increased resorption of bone: inhibited a number of compounds known to be involved in increased resorption of bone
Osteoporosis [11]
  effect on other bone-preserving agents: enhance the effect of other bone-preserving agents
Bone mineral density
  bone density: no changes in bone density
